Data on one molecule can be found in patent publication US20160235807A1, “AGONISTS OF GUANYLATE CYCLASE USEFUL FOR DOWNREGULATION OF PRO-INFLAMMATORY CYTOKINES” (SYNERGY PHARMACEUTICALS, INC., priority 2013, published 2016).

One series deals with LPS stimulated T84 cells. Nature of the series: Cytokines expression analysis (ELISA) in LPS stimulated T84 cells. The note with it: LPS 10 μg/ml 4 h, then SP-333 16 h. Format: cell-based, human. As for the experimental part:
To evaluate the effect of different concentrations of SP-333 on secretion of cytokines (IL-8 and TNF), 12-well plates seeded with 10^5 cells/well were used. At 85-90% confluence, cells were washed with DPBS and treated with or without LPS (10 μg/ml) for 4 h, followed by washing with phosphate buffered saline (PBS). SP-333 at 0, 0.01, 0.1, 1 and 10 μM) together with 500 μM of Zaprinast was added to the treated cells and incubated further for 16 h. The levels of IL-8 and TNF were quantified using human IL-8 and TNF ELISA development kits (Peprotech, Rocky Hill, N.J.) Each ELISA was performed in triplicate with cell-free supernatants from two independent experiments. The protein concentration of each well was assessed by Bio-Rad protein dye detection kit.

The next series relates to DSS-induced colitis. Put plainly: DSS-induced colitis in BDF-1 mice. Type of series: in vivo, mouse. As for the experimental part:
To evaluate the efficacy of plecanatide in DSS induced colitis model, 48 BDF-1 mice were divided into 8 treatment groups (6 mice/group). One group was not exposed to DSS (untreated control) and groups 2-8 were treated with 5% DSS in the drinking water on day 0. Plecanatide or SP-333 solutions formulated in 0.1M phosphate buffer (pH 7) was administered by oral gavage, once a day at 0.005, 0.05, 0.5, 2.5 and 5 mg/kg, from study day −1 (i.e. prior to initiation of DSS treatment) through day 6 for SP-333 or day 7 for plecanatide. DSS treatment was initiated on day 0 for groups 2-8 until the end of the study. Sulfasalazine (80 mg/kg) or 5-ASA (100 mg/kg) was used as positive control and was administered daily. Mice were sacrificed on day 7. The large intestine was removed and weighed. Distal section of the large intestine was collected and fixed as described above.
Disease activity index (DAI) was calculated by scoring in-life parameters starting from day −1 until the end of the study. Once daily, all mice were weighed and assessed for stool consistency, and the presence of overt blood in the stool or around the anus essentially similar to that reported earlier. Colitis severity was assessed by histopathological analyses of H&E stained tissue sections (Hegazi et al., 2005; Dave et al., 2009) employing the following criteria: (score 0) normal appearing crypts; (score 1) abnormal crypt pathology without ulceration; (score 2) depleted crypts with ulceration; (score 3) 20-50% depleted crypts and increased ulceration; (score 4) >50% depleted crypts with substantial ulceration and (score 5) totally ulcerated/inflamed colon with no crypts remaining. All slides were scored in a blinded manner. Colitis severity in TCRα−/− model was scored as previously described^25. All slides were scored in a blinded manner. Disease activity index (DAI) was calculated by assessing body weight, stool consistency, and the presence of overt blood in stools or around the anus, essentially similar to that reported earlier (Hamamoto et al., 1999).

For series [1], the system named is myeloperoxidase (MPO) activity in colon tissues. Put plainly: MPO activity in lysates from mid-colon tissues, DSS-induced colitis in BDF-1 mice. Type of series: in vivo, mouse. As for the experimental part:
(§1) A total of 40 samples were chosen for analysis of MPO activity and Ki-67 labeling from the treatment groups that received SP-333, its vehicle control (0.1M phosphate buffer, pH 7) and the reference compound (5-ASA). A random number generator (www.random.org) was employed to select samples from these groups (7 from each of the SP-333-recipient groups and 6 from each of the vehicle and 5-ASA groups).
Myeloperoxidase activity in colonic tissue samples was performed according to the method described (Krawisc et al., 1984). Briefly, the rate of change in absorbance at 450 nm was recorded when 20 μl of tissue extract was incubated with […] of reaction buffer containing 0.26 mg/ml 0-dianisidine and 0.6 μl/ml H2O2. Each reaction was performed in triplicate. The rate of reaction was determined (initial slope) and normalized to protein concentration of sample.

The subject of series [2] is Ki-67 labeling of crypt epithelial cells. Put plainly: Ki-67 labeling in large bowel cross sections, DSS-induced colitis in BDF-1 mice. Type of series: in vivo, mouse.
Description: as §1
Employing standard procedures, two non-serial sections from each animal, were de-waxed in xylene and rehydrated in graded alcohols to PBS (pH 7.4). Endogenous peroxidase was blocked by incubation in 0.3% […] for 30 min. Antigen retrieval was performed by placing the slides in 1 L of citrate buffer (pH 6) and microwaving at high power for 20 minutes. After cooling for 15 minutes, sections were incubated with 10% normal goat serum for 30 minutes to block non-specific binding Primary antibody (mouse monoclonal IgG, clone MIB-1, Dako) at 1/50 dilution was added and incubated for 1 hour at room temperature. Sections were washed and incubated with biotinylated secondary IgG antibody (1/200 dilution; Vector Labs Inc.), for 45 minutes at room temperature. Subsequently, slides were washed and incubated with ABC Elite reagents (Vector Labs Inc.), for 30 minutes at room temperature. […] Sections were counterstained with thionine, dehydrated and mounted.

Series [3] is classed as in vitro ADME. As for the experimental part: (§2) Plecanatide and SP-333 were incubated in simulated intestinal fluid (SIF) for 6-24 h. Inactivated SIF was used as a control. Following the treatment, samples were analyzed by HPLC by cGMP production in T84 cells. […] The active metabolite, SP-338 was characterized by MS and MS/MS and identified to be formed via removal of carboxyl terminal leucine possibly due to cleavage by carboxypeptidases.

Series [4] is classed as in vitro ADME. As for the experimental part:
The potency of test peptides to stimulate cGMP synthesis in T84 cells was assayed by a published procedure (Shailubhai et al. 2000). Briefly, confluent monolayers of T-84 cells in 24-well plates were washed twice with 250 μl of DMEM containing 50 mM HEPES (pH 7.4), pre-incubated at 37° C. for 10 min with 250 μl of DMEM containing 50 mM HEPES (pH 7.4) and 1 mM isobutylmethylxanthine (IBMX), followed by incubation with test peptide for 30 min. The medium was aspirated, and the reaction was terminated by the addition of 3% perchloric acid. Following centrifugation, and neutralization with 0.1 N NaOH, the resulting supernatant was used directly for measurements of intracellular cGMP using an ELISA kit (Caymen Chemical, Ann Arbor, Mich.). Results are expressed as pmol of cGMP/mg of protein in the cell extracts.
as §2
The source holds these as a separate data set.

Setting [5] is: SP-333 0.005 to 5 mg/kg oral daily, vs DSS alone or DSS plus vehicle.

“Also recorded” adds a separate entry of the source. Bridge positions count the residues as written; N and C are the ends. Square brackets hold non-standard residues; d marks the D form. Peptide text beside a SMILES is read from it.

Regarding `CC(C)C[C@@H]1NC(=O)[C@H](CCC(=O)O)NC(=O)[C@@H](NC(=O)[C@H](CCC(=O)O)NC(=O)[C@H](CC(=O)O)NC(=O)[C@H](N)CC(N)=O)CSSC[C@@H]2NC(=O)[C@H](C)NC(=O)[C@H](C(C)C)NC(=O)[C@H](CC(N)=O)NC(=O)[C@H](C(C)C)NC(=O)[C@H](CSSC[C@@H](C(=O)N[C@H](CC(C)C)C(=O)O)NC(=O)CNC(=O)[C@H]([C@@H](C)O)NC2=O)NC1=O` [SP-333, dAsn^1-Asp^2-Glu^3-Cys^4-Glu^5-Leu^6-Cys^7-Val^8-Asn^9-Val^10-Ala^11-Cys^12-Thr^13-Gly^14-Cys^15-dLeu^16] (H-[dN]DECELCVNVACTGC[dL]-OH; disulfide 4-12, 7-15; N-terminus and C-terminus assumed), in the series with LPS stimulated T84 cells, the “LPS stimulated production of IL-8” value is given as “concentration dependent reversal” and the “LPS stimulated production of TNF” value is “concentration dependent reversal”. This molecule gave a histopathology score in the series with DSS-induced colitis (DSS+SP-333 0.005 mg/kg, representative image FIG. 10C (DSS alone 4)) of 1. The molecule further showed a histopathology score with DSS-induced colitis (DSS+SP-333 0.05 mg/kg, representative image FIG. 10D) of 2. The histopathology score with DSS-induced colitis (DSS+SP-333 0.5 mg/kg, representative image FIG. 10E) was 2. The “amelioration of colitis compared with 5-ASA” value in the series with DSS-induced colitis (SP-333 0.005 mg/kg oral) was “as effective as 5-ASA (100 mg/kg)”. Besides, in the series on DSS-induced colitis (SP-333 0.05 mg/kg oral, vs DSS vehicle control, p=0.041), the DAI result was “significant reduction”. Further, in the series on DSS-induced colitis (setting [5]), the “mean DAI scores” value is given as “lower” and the “mean scores of colitis severity” value is given as “lower”. Moreover, the “histological evaluation of colon tissues (crypts)” value in the series with DSS-induced colitis (SP-333 treatment groups) was “minimal loss of crypts with very low distortions in crypt morphology”. In addition, in series [1] (SP-333 0.05 mg/kg), the “reduction of MPO activity” value was roughly 50%. This molecule also yielded an MPO activity in series [1] (SP-333 0.05 mg/kg, p=0.001 vs DSS group (0.048±0.004)) of 0.024±0.003 units/minute. In addition, in series [1] (SP-333 all doses, significant (p<0.05) except 0.5 mg/kg), the “MPO activity compared to DSS treated animals” value is “significantly lower; also recorded: considerably reduced; also recorded: much lower”. In series [2] (SP-333 0.005 mg/kg), the “crypts with normal Ki-67 labeling, comparison among groups” value is listed as “greatest percentage of crypts with normal Ki-67 labeling”. Further, the “proportion of Ki-67 positive crypts” value in series [2] (SP-333 0.005 mg/kg/day (DSS control 35.3±4.86%)) is 60.4±6.96%. Further, in series [2] (SP-333 0.05 mg/kg/day), the “proportion of Ki-67 positive crypts” value was found to be 58.7±7.3%. Besides, in series [2] (SP-333 treated sections), the “proportion of crypts with Ki-67 labeling vs DSS treated control” value is listed as “larger proportions of crypts with Ki-67 labeling”. Further, the “stability in simulated gastric and intestinal fluids” value in series [3] is listed as “stable”. Moreover, in series [4], the biological activity lost is given as roughly 20% and the “biological activity retained” value is listed as “retains most of its biological activity”.
